This note sets out measurements from patent US9340590B2 (priority 2011, dated 2016).

For experiment [1], the target named is hNav1.5 (Homo sapiens, UniProt Q14524). Put plainly: cell-based.
The target in experiment [2] is hNav1.7 (Homo sapiens, UniProt Q15858). Put plainly: cell-based. The following applies: Nav1.7 Use IC50.

Each structure is given as a SMILES string. pIC50: −log10 of the molar value. Positions of bridges follow the written chain, without caps; N, C: chain ends. Non-standard residues stand in square brackets, D forms with d. Residues, ends and D or L forms follow the SMILES beside them. Phe(3,4-(OMe)2) = COc1ccc(C[C@H](N)C(=O)O)cc1OC; Arg(Me) = CNC(=N)NCCC[C@H](N)C(=O)O; 2Pal = N[C@@H](Cc1ccccn1)C(=O)O; Nva = CCC[C@H](N)C(=O)O

Sequence of hNav1.7 (Q15858 whole entry, looked up): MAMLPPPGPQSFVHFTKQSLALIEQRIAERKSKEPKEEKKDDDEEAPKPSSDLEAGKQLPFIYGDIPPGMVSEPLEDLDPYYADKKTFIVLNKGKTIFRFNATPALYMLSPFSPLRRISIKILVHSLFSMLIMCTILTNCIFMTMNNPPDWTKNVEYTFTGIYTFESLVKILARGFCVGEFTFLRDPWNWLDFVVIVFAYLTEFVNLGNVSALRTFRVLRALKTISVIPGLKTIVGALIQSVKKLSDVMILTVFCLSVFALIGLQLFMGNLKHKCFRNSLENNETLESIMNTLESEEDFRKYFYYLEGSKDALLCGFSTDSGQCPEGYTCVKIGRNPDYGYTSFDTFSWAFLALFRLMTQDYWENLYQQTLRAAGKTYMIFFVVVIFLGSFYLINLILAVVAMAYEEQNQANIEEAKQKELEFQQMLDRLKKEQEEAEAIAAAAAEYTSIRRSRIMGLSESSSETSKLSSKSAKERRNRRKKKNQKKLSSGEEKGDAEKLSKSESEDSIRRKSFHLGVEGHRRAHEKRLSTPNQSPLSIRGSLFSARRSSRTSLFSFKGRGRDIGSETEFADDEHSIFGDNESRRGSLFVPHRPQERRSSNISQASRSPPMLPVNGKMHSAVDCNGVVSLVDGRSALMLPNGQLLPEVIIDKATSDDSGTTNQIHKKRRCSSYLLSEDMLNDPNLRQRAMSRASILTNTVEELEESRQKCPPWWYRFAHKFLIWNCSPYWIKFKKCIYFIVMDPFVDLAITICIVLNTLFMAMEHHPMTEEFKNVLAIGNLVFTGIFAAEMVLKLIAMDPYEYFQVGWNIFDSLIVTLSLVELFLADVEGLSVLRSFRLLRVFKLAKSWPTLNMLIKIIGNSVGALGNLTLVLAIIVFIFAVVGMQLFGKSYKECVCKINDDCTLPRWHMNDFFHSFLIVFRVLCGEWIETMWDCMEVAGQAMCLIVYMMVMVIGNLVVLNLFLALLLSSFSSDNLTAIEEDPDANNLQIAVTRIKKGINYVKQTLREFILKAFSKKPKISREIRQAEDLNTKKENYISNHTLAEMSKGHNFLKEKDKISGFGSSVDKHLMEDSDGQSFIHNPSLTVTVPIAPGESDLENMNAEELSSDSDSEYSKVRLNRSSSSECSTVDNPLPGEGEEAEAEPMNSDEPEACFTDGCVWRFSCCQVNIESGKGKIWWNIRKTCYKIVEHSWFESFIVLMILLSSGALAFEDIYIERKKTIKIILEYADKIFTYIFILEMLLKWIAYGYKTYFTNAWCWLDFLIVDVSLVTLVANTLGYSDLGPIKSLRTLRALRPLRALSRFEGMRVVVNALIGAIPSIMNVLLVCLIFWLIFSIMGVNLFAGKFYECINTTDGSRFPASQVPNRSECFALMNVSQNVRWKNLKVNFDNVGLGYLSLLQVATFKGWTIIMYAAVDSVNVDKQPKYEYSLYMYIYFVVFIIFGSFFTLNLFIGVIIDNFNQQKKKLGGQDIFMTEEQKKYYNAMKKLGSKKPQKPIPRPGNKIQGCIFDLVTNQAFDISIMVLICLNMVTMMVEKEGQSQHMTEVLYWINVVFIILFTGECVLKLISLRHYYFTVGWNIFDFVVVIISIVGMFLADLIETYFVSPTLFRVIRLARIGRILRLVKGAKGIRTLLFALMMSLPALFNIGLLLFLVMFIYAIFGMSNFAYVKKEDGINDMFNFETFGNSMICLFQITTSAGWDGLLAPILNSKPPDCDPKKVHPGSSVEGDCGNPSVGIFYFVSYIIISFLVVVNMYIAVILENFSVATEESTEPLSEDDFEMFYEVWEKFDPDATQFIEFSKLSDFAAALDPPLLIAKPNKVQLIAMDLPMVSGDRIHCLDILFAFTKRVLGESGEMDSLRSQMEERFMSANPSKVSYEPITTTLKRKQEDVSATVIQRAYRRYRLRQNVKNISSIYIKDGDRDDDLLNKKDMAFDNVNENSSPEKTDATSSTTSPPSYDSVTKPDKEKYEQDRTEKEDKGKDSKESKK
Sequence of hNav1.5 (Q14524 whole entry, looked up): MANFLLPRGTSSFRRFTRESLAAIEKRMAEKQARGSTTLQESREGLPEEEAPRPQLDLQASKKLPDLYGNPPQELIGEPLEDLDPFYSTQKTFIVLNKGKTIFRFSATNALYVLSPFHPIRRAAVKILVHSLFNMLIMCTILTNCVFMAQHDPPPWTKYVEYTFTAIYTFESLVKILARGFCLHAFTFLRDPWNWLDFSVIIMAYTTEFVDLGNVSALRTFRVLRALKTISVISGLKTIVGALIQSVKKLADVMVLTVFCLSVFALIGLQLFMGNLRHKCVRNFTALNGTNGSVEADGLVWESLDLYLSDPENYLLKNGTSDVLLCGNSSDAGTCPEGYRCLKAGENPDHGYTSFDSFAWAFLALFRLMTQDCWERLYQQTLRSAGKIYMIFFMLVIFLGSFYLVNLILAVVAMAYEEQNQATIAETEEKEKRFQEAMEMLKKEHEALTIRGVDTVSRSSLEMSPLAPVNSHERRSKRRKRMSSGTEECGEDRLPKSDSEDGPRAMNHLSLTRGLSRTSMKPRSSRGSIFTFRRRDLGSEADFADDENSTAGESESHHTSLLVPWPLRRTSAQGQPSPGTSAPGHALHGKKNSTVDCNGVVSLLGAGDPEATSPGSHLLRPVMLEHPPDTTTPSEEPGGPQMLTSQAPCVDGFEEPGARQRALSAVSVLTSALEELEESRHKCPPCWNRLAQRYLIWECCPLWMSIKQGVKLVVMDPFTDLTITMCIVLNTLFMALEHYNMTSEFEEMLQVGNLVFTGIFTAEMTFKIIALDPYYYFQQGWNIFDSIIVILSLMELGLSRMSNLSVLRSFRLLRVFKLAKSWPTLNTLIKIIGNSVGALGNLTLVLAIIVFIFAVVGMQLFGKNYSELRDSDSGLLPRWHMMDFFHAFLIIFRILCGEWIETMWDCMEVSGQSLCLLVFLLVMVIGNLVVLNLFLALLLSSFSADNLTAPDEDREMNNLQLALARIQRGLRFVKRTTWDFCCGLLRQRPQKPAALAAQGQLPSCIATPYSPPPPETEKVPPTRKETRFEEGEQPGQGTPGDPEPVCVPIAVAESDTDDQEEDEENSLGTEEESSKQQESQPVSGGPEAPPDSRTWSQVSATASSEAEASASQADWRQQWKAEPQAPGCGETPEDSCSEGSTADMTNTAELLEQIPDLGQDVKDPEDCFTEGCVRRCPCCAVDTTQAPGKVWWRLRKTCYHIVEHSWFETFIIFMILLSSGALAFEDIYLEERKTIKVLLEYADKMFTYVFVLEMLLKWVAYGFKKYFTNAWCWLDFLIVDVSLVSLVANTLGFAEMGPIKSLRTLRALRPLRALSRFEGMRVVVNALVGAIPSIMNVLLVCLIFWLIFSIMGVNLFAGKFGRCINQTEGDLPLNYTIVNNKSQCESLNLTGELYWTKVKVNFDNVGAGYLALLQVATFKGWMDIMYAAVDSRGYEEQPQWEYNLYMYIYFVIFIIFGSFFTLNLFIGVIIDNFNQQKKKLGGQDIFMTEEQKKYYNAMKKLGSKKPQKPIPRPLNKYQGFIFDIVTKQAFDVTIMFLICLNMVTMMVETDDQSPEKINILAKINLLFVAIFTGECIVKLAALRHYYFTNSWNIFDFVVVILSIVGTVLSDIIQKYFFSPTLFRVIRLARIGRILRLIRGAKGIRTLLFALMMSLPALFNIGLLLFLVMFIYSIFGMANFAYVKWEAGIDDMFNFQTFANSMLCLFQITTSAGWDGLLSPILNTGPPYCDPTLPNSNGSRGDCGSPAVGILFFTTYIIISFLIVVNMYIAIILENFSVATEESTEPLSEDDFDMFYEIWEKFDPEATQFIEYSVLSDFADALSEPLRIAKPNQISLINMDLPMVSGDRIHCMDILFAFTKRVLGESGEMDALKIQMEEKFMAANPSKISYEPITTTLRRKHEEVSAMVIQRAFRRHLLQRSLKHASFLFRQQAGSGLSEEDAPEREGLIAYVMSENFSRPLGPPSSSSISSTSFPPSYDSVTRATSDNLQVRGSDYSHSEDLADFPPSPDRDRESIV

In the case of `CCC[C@@H]1NC(=O)CNC(=O)[C@H](CC(C)C)NC(=O)[C@@H](NC(=O)[C@@H](N)CC(=O)O)CSSC[C@@H]2NC(=O)[C@@H]3CSSC[C@@H](C(=O)N[C@@H](CCCCN)C(=O)N[C@@H](Cc4ccc(O)cc4)C(=O)N[C@H](C(=O)N[C@@H](Cc4ccccc4)C(N)=O)C(C)C)NC(=O)[C@H](Cc4c[nH]c5ccccc45)NC(=O)[C@H](CCC(=O)O)NC(=O)[C@H](Cc4c[nH]cn4)NC(=O)[C@H]([C@@H](C)O)NC(=O)[C@H](CCCNC(=N)N)NC(=O)[C@H](CO)NC(=O)[C@H](CSSC[C@H](NC(=O)[C@H](CCCCN)NC(=O)[C@H](CCCNC(=N)N)NC(=O)[C@H](CC(C)C)NC1=O)C(=O)N[C@@H]([C@@H](C)CC)C(=O)N1CCC[C@H]1C(=O)N[C@@H](CC(=O)O)C(=O)N[C@@H](CC(N)=O)C(=O)N[C@@H](CC(=O)O)C(=O)N[C@@H](CCCCN)C(=O)N3)NC(=O)[C@H](C(C)C)NC(=O)[C@H](CC(C)C)NC(=O)[C@H](CC(N)=O)NC(=O)[C@@H]1CCCN1C(=O)[C@H](CCCNC(=N)N)NC2=O` [[Nva5;Leu6;Glu28]GpTx-1(1-34)] (H-DCLG[Nva]LRKCIPDNDKCCRPNLVCSRTHEWCKYVF-NH2; disulfide 2-17, 9-23, 16-30), the negative-log IC50 (pIC50) is less than 5.00 in experiment [1] and 7.38 in experiment [2].

On to `CC[C@H](C)[C@@H]1NC(=O)[C@@H]2CSSC[C@@H]3NC(=O)[C@H](C(C)C)NC(=O)[C@H](CC(C)C)NC(=O)[C@H](CC(N)=O)NC(=O)[C@@H]4CCCN4C(=O)[C@H](CCCNC(=N)N)NC(=O)[C@H](CSSC[C@H](NC(=O)[C@@H](N)CC(=O)O)C(=O)N[C@@H](CC(C)C)C(=O)NCC(=O)N[C@@H](C)C(=O)N[C@@H](CC(C)C)C(=O)N[C@@H](CCCNC(=N)N)C(=O)N[C@@H](CCCCN)C(=O)N2)NC(=O)[C@H](CSSC[C@@H](C(=O)N[C@@H](CCCCN)C(=O)N[C@@H](Cc2ccc(O)cc2)C(=O)N[C@H](C(=O)N[C@@H](Cc2ccccc2)C(=O)N[C@@H](Cc2c[nH]c4ccccc24)C(=O)O)C(C)C)NC(=O)[C@H](Cc2c[nH]c4ccccc24)NC(=O)[C@H](CCCNC(=N)N)NC(=O)[C@H](Cc2c[nH]cn2)NC(=O)[C@H]([C@@H](C)O)NC(=O)[C@H](CCCNC(=N)N)NC(=O)[C@H](CO)NC3=O)NC(=O)[C@H](CCCCN)NC(=O)[C@H](CC(=O)O)NC(=O)[C@H](CC(N)=O)NC(=O)[C@H](CC(=O)O)NC(=O)[C@@H]2CCCN2C1=O` (H-DCLGALRKCIPDNDKCCRPNLVCSRTHRWCKYVFW-OH; disulfide 2-17, 9-23, 16-30), for which the negative-log IC50 (pIC50) in experiment [1] was less than 5.00; in experiment [2] it was 7.30.

For `CC[C@H](C)[C@@H]1NC(=O)[C@@H]2CSSC[C@@H]3NC(=O)[C@H](C(C)C)NC(=O)[C@H](CC(C)C)NC(=O)[C@H](CC(N)=O)NC(=O)[C@@H]4CCCN4C(=O)[C@H](CCCNC(=N)N)NC(=O)[C@H](CSSC[C@H](NC(=O)[C@@H](N)CC(=O)O)C(=O)N[C@@H](CC(C)C)C(=O)NCC(=O)N[C@@H](Cc4ccccc4)C(=O)N[C@@H](CCSC)C(=O)N[C@@H](CCCNC(=N)N)C(=O)N[C@@H](CCCCN)C(=O)N2)NC(=O)[C@H](CSSC[C@@H](C(=O)N[C@@H](CCCCN)C(=O)N[C@@H](Cc2ccc(O)cc2)C(=O)N[C@H](C(=O)N[C@@H](Cc2ccccc2)C(=O)N[C@@H](Cc2ccccn2)C(N)=O)C(C)C)NC(=O)[C@H](Cc2c[nH]c4ccccc24)NC(=O)[C@H](CCCCN)NC(=O)[C@H](Cc2c[nH]cn2)NC(=O)[C@H]([C@@H](C)O)NC(=O)[C@H](CCCNC(=N)N)NC(=O)[C@H](CO)NC3=O)NC(=O)[C@H](CCCCN)NC(=O)[C@H](CC(=O)O)NC(=O)[C@H](CC(N)=O)NC(=O)[C@H](CC(=O)O)NC(=O)[C@@H]2CCCN2C1=O` [GpTx-1(1-34)-2PAL], the negative-log IC50 (pIC50) in experiment [1] is less than 5.00; in experiment [2], 7.57.

`CC[C@H](C)[C@@H]1NC(=O)[C@@H]2CSSC[C@@H]3NC(=O)[C@H](C(C)C)NC(=O)[C@H](CC(C)C)NC(=O)[C@H](CC(N)=O)NC(=O)[C@@H]4CCCN4C(=O)[C@H](CCCNC(=N)N)NC(=O)[C@H](CSSC[C@H](NC(=O)[C@@H](N)CC(=O)O)C(=O)N[C@@H](CC(C)C)C(=O)NCC(=O)N[C@@H](Cc4ccccc4)C(=O)N[C@@H](CCSC)C(=O)N[C@@H](CCCNC(=N)N)C(=O)N[C@@H](CCCCN)C(=O)N2)NC(=O)[C@H](CSSC[C@@H](C(=O)N[C@@H](CCCCN)C(=O)N[C@@H](Cc2ccc(O)cc2)C(=O)N[C@@H](Cc2ccccn2)C(=O)N[C@@H](Cc2ccccc2)C(N)=O)NC(=O)[C@H](Cc2c[nH]c4ccccc24)NC(=O)[C@H](CCCCN)NC(=O)[C@H](Cc2c[nH]cn2)NC(=O)[C@H]([C@@H](C)O)NC(=O)[C@H](CCCNC(=N)N)NC(=O)[C@H](CO)NC3=O)NC(=O)[C@H](CCCCN)NC(=O)[C@H](CC(=O)O)NC(=O)[C@H](CC(N)=O)NC(=O)[C@H](CC(=O)O)NC(=O)[C@@H]2CCCN2C1=O` [[2PAL33]GpTx-1(1-34)] (H-DCLGFMRKCIPDNDKCCRPNLVCSRTHKWCKY[2Pal]F-NH2; disulfide 2-17, 9-23, 16-30): the results for the pIC50 in experiment [1] and in experiment [2] were 5.46 and 8.00, respectively.

As to `CC[C@H](C)[C@@H]1NC(=O)[C@@H]2CSSC[C@@H]3NC(=O)[C@H](C(C)C)NC(=O)[C@H](CC(C)C)NC(=O)[C@H](CC(N)=O)NC(=O)[C@@H]4CCCN4C(=O)[C@H](CCCNC(=N)N)NC(=O)[C@H](CSSC[C@H](NC(=O)[C@@H](N)CC(=O)O)C(=O)N[C@@H](CC(C)C)C(=O)NCC(=O)N[C@@H](Cc4ccc(OC)c(OC)c4)C(=O)N[C@@H](Cc4ccccc4)C(=O)N[C@@H](CCCNC(=N)N)C(=O)N[C@@H](CCCCN)C(=O)N2)NC(=O)[C@H](CSSC[C@@H](C(=O)N[C@@H](CCCCN)C(=O)N[C@@H](Cc2ccc(O)cc2)C(=O)N[C@H](C(=O)N[C@@H](Cc2ccccc2)C(N)=O)C(C)C)NC(=O)[C@H](Cc2c[nH]c4ccccc24)NC(=O)[C@H](CCCCN)NC(=O)[C@H](Cc2c[nH]cn2)NC(=O)[C@H]([C@@H](C)O)NC(=O)[C@H](CCCNC(=N)N)NC(=O)[C@H](CO)NC3=O)NC(=O)[C@H](CCCCN)NC(=O)[C@H](CC(=O)O)NC(=O)[C@H](CC(N)=O)NC(=O)[C@H](CC(=O)O)NC(=O)[C@@H]2CCCN2C1=O` [[DiMeO-F5;Phe6]GpTx-1(1-34)] (H-DCLG[Phe(3,4-(OMe)2)]FRKCIPDNDKCCRPNLVCSRTHKWCKYVF-NH2; disulfide 2-17, 9-23, 16-30), the pIC50 is less than 5.00 in experiment [1] and 7.48 in experiment [2].

For the compound `CC[C@H](C)[C@@H]1NC(=O)[C@@H]2CSSC[C@@H]3NC(=O)[C@H](C(C)C)NC(=O)[C@H](CC(C)C)NC(=O)[C@H](CC(N)=O)NC(=O)[C@@H]4CCCN4C(=O)[C@H](CCCNC(=N)N)NC(=O)[C@H](CSSC[C@H](NC(=O)[C@@H](N)CC(=O)O)C(=O)N[C@@H](CC(C)C)C(=O)NCC(=O)N[C@@H](C)C(=O)N[C@@H](CCSC)C(=O)N[C@@H](CCCNC(=N)N)C(=O)N[C@@H](CCCCN)C(=O)N2)NC(=O)[C@H](CSSC[C@@H](C(=O)N[C@@H](CCCCN)C(=O)N[C@@H](Cc2ccc(O)cc2)C(=O)N[C@H](C(=O)N[C@@H](Cc2ccccc2)C(N)=O)C(C)C)NC(=O)[C@H](Cc2c[nH]c4ccccc24)NC(=O)[C@H](CCCNC(=N)NC)NC(=O)[C@H](Cc2c[nH]cn2)NC(=O)[C@H]([C@@H](C)O)NC(=O)[C@H](CCCNC(=N)N)NC(=O)[C@H](CO)NC3=O)NC(=O)[C@H](CCCCN)NC(=O)[C@H](CC(=O)O)NC(=O)[C@H](CC(N)=O)NC(=O)[C@H](CC(=O)O)NC(=O)[C@@H]2CCCN2C1=O` [[Ala5;R(Me)28]GpTx-1(1-34)] (H-DCLGAMRKCIPDNDKCCRPNLVCSRTH[Arg(Me)]WCKYVF-NH2; disulfide 2-17, 9-23, 16-30), the negative logarithm of the IC50 (pIC50) in experiment [1] is less than 5.00; in experiment [2], 7.29.

As for `CC[C@H](C)[C@@H]1NC(=O)[C@@H]2CSSC[C@@H]3NC(=O)[C@H](C(C)C)NC(=O)[C@H](CC(C)C)NC(=O)[C@H](CC(N)=O)NC(=O)[C@@H]4CCCN4C(=O)[C@H](CCCNC(=N)N)NC(=O)[C@H](CSSC[C@H](NC(=O)[C@@H](N)CC(=O)O)C(=O)N[C@@H](CC(C)C)C(=O)NCC(=O)N[C@@H](C)C(=O)N[C@@H](Cc4ccccc4)C(=O)N[C@@H](CCCNC(=N)N)C(=O)N[C@@H](CCCCN)C(=O)N2)NC(=O)[C@H](CSSC[C@@H](C(=O)N[C@@H](CCCCN)C(=O)N[C@@H](Cc2ccc(O)cc2)C(=O)N[C@H](C(=O)N[C@@H](Cc2ccccc2)C(N)=O)C(C)C)NC(=O)[C@H](Cc2c[nH]c4ccccc24)NC(=O)[C@H](CCCNC(=N)N)NC(=O)[C@H](Cc2c[nH]cn2)NC(=O)[C@H](CC(C)C)NC(=O)[C@H](CCCNC(=N)N)NC(=O)[C@H](CO)NC3=O)NC(=O)[C@H](CCCCN)NC(=O)[C@H](CC(=O)O)NC(=O)[C@H](Cc2cn(CCOCCOCCOCCOCCOCCOCCOCCOCCOCCOCCOCCNC(=O)CSCCO)nn2)NC(=O)[C@H](CC(=O)O)NC(=O)[C@@H]2CCCN2C1=O`, the pIC50 is less than 5.00 in experiment [1] and 7.46 in experiment [2].

On to `CC[C@H](C)[C@@H]1NC(=O)[C@@H]2CSSC[C@@H]3NC(=O)[C@H](C(C)C)NC(=O)[C@H](CC(C)C)NC(=O)[C@H](CC(N)=O)NC(=O)[C@@H]4CCCN4C(=O)[C@H](CCCNC(=N)N)NC(=O)[C@H](CSSC[C@H](NC(=O)[C@@H](N)CC(=O)O)C(=O)N[C@@H](CC(C)C)C(=O)NCC(=O)N(C)[C@@H](CC(C)C)C(=O)N[C@@H](CC(C)C)C(=O)N[C@@H](CCCNC(=N)N)C(=O)N[C@@H](CCCCN)C(=O)N2)NC(=O)[C@H](CSSC[C@@H](C(=O)N[C@@H](CCCCN)C(=O)N[C@@H](Cc2ccc(O)cc2)C(=O)N[C@H](C(=O)N[C@@H](Cc2ccccc2)C(N)=O)C(C)C)NC(=O)[C@H](Cc2c[nH]c4ccccc24)NC(=O)[C@H](CCCCN)NC(=O)[C@H](Cc2c[nH]cn2)NC(=O)[C@H]([C@@H](C)O)NC(=O)[C@H](CCCNC(=N)N)NC(=O)[C@H](CO)NC3=O)NC(=O)[C@H](CCCCN)NC(=O)[C@H](CC(=O)O)NC(=O)[C@H](CC(N)=O)NC(=O)[C@H](CC(=O)O)NC(=O)[C@@H]2CCCN2C1=O` [[NMeLeu5;Leu6]GpTx-1(1-34)], for which the pIC50 in experiment [1] is less than 5.00; in experiment [2], 7.92.
